# Patent US20230365493A1, “COMPOUNDS AND METHODS” (DEMAGTECH PTY LTD, priority 2020, published 2023)
# Where a name gives a salt, the structure may show the parent alone.
# Tested on: Arabidopsis thaliana
# Assay: Activity of 2,4-DB esters compared with 2,4-DB
# Format: in vivo
# Settings: 31.25 μM to 2000 μM; imaged day 12
# Procedure: (§1) Once the Arabidopsis thaliana seeds had germinated, this was Day 0 and an image taken (Treatment—Day 0) to show plants were all at the same stage. Plants were treated either with 2,4-DB or 2-(dimethylamino)ethyl 4-(2,4-dichlorophenoxy)butanoate at concentrations ranging from 31.25 μM to 2000 μM as marked and imaged 12 days later (Treatment—Day 12).
# as §1, with “4-(2,4-dichlorophenoxy)butanoate hydrochloride” for “4-(2,4-dichlorophenoxy)butanoate”
row,SMILES,"activity against Arabidopsis thaliana on an equimolar basis, FIGS. 19 and 20"
1,"O=C(O)CCCOc1ccc(Cl)cc1Cl [2,4-DB, 4-(2,4-dichlorophenoxy)butanoic acid, reference compound]",comparable activity
2,"CN(C)CCOC(=O)CCCOc1ccc(Cl)cc1Cl [2-(dimethylamino)ethyl 4-(2,4-dichlorophenoxy)butanoate]",comparable activity
3,"CN(C)CCOC(=O)CCCOc1ccc(Cl)cc1Cl.Cl [2-(dimethylamino)ethyl 4-(2,4-dichlorophenoxy)butanoate hydrochloride]",comparable activity

# Tested on: A. thaliana
# Assay: Herbicidal activity assay, post-emergence, pots
# Format: in vivo, Arabidopsis thaliana Col-0
# Settings: A. thaliana Col-0; post-emergence treatments at three and six days after germination; grown 16 days after treatment
# Procedure: (§2) A range of compounds of the invention were assessed for herbicidal activity against A. thaliana. A. thaliana Col-0 seeds (˜30) were sown in 63×63×59 mm pots consisting of Irish peat that was pre-wet prior to sowing. Seeds were cold-treated for 3 days in the dark at 4° C. to synchronise germination and then grown in a chamber at 22° C., with 60% relative humidity and in a 16 h light/8 h dark photoperiod. Compounds of the invention were initially dissolved in dimethyl sulfoxide (DMSO) at 20 mg/mL and further diluted in water prior to treatments. The surfactant Brushwet (SST Australia) was added to a final concentration of 0.02%. The carrier DMSO was used as a negative control. Seeds or seedlings were treated with solutions of compound that contained 2% of DMSO, using a pipette. Post-emergence treatments were done at three and six days after germination. Seedlings were grown for 16 days after treatment before photos were taken.
# The results of this study are represented in the following table, where compounds of the invention are represented by number, and herbicidal activity is represented using the following: ≤125 μM=+++, ≤500 μM=++, ≤2000 μM=+
# as §2, with “A.” for “A range of compounds of the invention were assessed for herbicidal activity against A. thaliana. A.”, “Compounds” for “Compounds of the invention”
row,SMILES,Active at [µM]
1,CC(=NNC(=O)Nc1cccc(F)c1)c1ncccc1C(=O)OCCN(C)C.Cl [2-(Dimethylamino)ethyl 2-[1-[2-[[(3-fluorophenyl)amino]carbonyl]hydrazinylidene]ethyl]-3-pyridinecarboxylate hydrochloride],125
2,"CN(C)CCOC(=O)c1c(Cl)ccc2cc(Cl)cnc12.Cl [3,7-dichloroquinoline-8-carboxylic acid 2-(dimethylamino)ethyl ester hydrochloride]",2000
3,"CN(C)CCOC(=O)c1nc(Cl)ccc1Cl.Cl [3,6-dichloropyridine-2-carboxylic acid 2-(dimethylamino)ethyl ester hydrochloride]",125
4,"CC(C)C1(C)N=C(c2ncccc2C(=O)OCCN(C)C)NC1=O.Cl (stereo not shown) [2-(Dimethylamino)ethyl 2-[4,5-dihydro-4-methyl-4-(1-methylethyl)-5-oxo-1H-imidazol-2-yl]-3-pyridinecarboxylate hydrochloride]",500
5,"CN(C)CCOC(=O)c1nc(Cl)ccc1Cl [3,6-dichloropyridine-2-carboxylic acid 2-(dimethylamino)ethyl ester]",125
6,"CN(C)CCOC(=O)c1c(Cl)ccc2cc(Cl)cnc12 [3,7-dichloroquinoline-8-carboxylic acid 2-(dimethylamino)ethyl ester]",2000

# Same assay, conditions: Arabidopsis thaliana, 384 h; A. thaliana Col-0; post-emergence treatments at three and six days after germination; grown 16 days after treatment
row,SMILES,minimal effective concentration [µM]
1,"COc1c(Cl)ccc(Cl)c1C(=O)OCCCCCCN(C)C [Compound 14, 6-(dimethylamino)hexyl 3,6-dichloro-2-methoxybenzoate]",≤ 125
2,"COc1c(Cl)ccc(Cl)c1C(=O)OCCN1CCOCC1 [Compound 7, 2-(morpholin-4-yl)ethyl 3,6-dichloro-2-methoxybenzoate]",≤ 125
3,"COc1c(Cl)ccc(Cl)c1C(=O)OC(C)CN (stereo not shown) [Compound 22, 1-aminopropan-2-yl 3,6-dichloro-2-methoxybenzoate]",≤ 2000
4,"COc1c(Cl)ccc(Cl)c1C(=O)SCCN(C)C [Compound 27, S-(2-(dimethylamino)ethyl) 3,6-dichloro-2-methoxybenzene-1-carbothioate]",≤ 125
5,"COc1c(Cl)ccc(Cl)c1C(=O)OCCCN [Compound 23, 3-aminopropyl 3,6-dichloro-2-methoxybenzoate]",≤ 125
6,"COc1c(Cl)ccc(Cl)c1C(=O)OCCCCCCCCN(C)C [Compound 15, 8-(dimethylamino)octyl 3,6-dichloro-2-methoxybenzoate]",≤ 500
7,"COc1c(Cl)ccc(Cl)c1C(=O)OCCCN(C)C [Compound 12, 3-(dimethylamino)propyl 3,6-dichloro-2-methoxybenzoate]",≤ 2000
8,"COc1c(Cl)ccc(Cl)c1C(=O)OCCN(C)CCOC(=O)c1c(Cl)ccc(Cl)c1OC [Compound 18, (Methylazanediyl)bis(ethane-2,1-diyl) bis(3,6-dichloro-2-methoxybenzoate)]",≤ 125
9,"COc1c(Cl)ccc(Cl)c1C(=O)OC(CN(C)C)CN(C)C [Compound 26, 1,3-bis(dimethylamino)propan-2-yl 3,6-dichloro-2-methoxybenzoate]",≤ 125
10,"CCCCN(CCCC)CCOC(=O)c1c(Cl)ccc(Cl)c1OC [Compound 4, 2-(dibutylamino)ethyl 3,6-dichloro-2-methoxybenzoate]",≤ 125
11,"CCN(CC)CCOC(=O)c1c(Cl)ccc(Cl)c1OC [Compound 2, 2-(diethylamino)ethyl 3,6-dichloro-2-methoxybenzoate]",≤ 125
12,"CCN(CCOC(=O)c1c(Cl)ccc(Cl)c1OC)c1ccccc1 [Compound 24, 2-(ethyl(phenyl)amino)ethyl 3,6-dichloro-2-methoxybenzoate]",≤ 500
13,"COc1c(Cl)ccc(Cl)c1C(=O)OCCN(C)CCO [Compound 17, 2-((2-hydroxyethyl)(methyl)amino)ethyl 3,6-dichloro-2-methoxybenzoate]",≤ 2000
14,"COc1c(Cl)ccc(Cl)c1C(=O)OC1CCN(C)CC1 [Compound 9, 1-methylpiperidin-4-yl 3,6-dichloro-2-methoxybenzoate]",≤ 2000
15,"CNCCOC(=O)c1c(Cl)ccc(Cl)c1OC [Compound 20, 2-(methylamino)ethyl 3,6-dichloro-2-methoxybenzoate]",≤ 500
16,"COc1c(Cl)ccc(Cl)c1C(=O)OCCN(Cc1ccccc1)Cc1ccccc1 [Compound 25, 2-(dibenzylamino)ethyl 3,6-dichloro-2-methoxybenzoate]",≤ 2000
17,"COc1c(Cl)ccc(Cl)c1C(=O)OCC1CCCN1C (stereo not shown) [Compound 10, (1-methylpyrrolidin-2-yl)methyl 3,6-dichloro-2-methoxybenzoate]",≤ 500
18,O=C(O)CC(O)(CC(=O)O)C(=O)O [1. citrate],≤ 125
19,"COc1c(Cl)ccc(Cl)c1C(=O)OCC(C)(C)N [Compound 21, 2-amino-2-methylpropyl 3,6-dichloro-2-methoxybenzoate]",≤ 500
20,"COc1c(Cl)ccc(Cl)c1C(=O)OCCN(C(C)C)C(C)C [Compound 3, 2-(dipropan-2-ylamino)ethyl 3,6-dichloro-2-methoxybenzoate]",≤ 500
21,"COc1c(Cl)ccc(Cl)c1C(=O)OCCN(C)C [Compound 1, 2-(dimethylamino)ethyl 3,6-dichloro-2-methoxybenzoate]",≤ 500
22,"COc1c(Cl)ccc(Cl)c1C(=O)OCCN1CCN(C)CC1 [Compound 8, 2-(4-methylpiperazin-1-yl)ethyl 3,6-dichloro-2-methoxybenzoate]",≤ 2000
23,"COc1c(Cl)ccc(Cl)c1C(=O)OCCc1ccccn1 [Compound 11, 2-(pyridin-2-yl)ethyl 3,6-dichloro-2-methoxybenzoate]",≤ 125
24,"COc1c(Cl)ccc(Cl)c1C(=O)OCCN [Compound 19, 2-aminoethyl 3,6-dichloro-2-methoxybenzoate]",≤ 500
25,"COc1c(Cl)ccc(Cl)c1C(=O)OCCOCCN(C)C [Compound 16, 2-(2-(dimethylamino)ethoxy)ethyl 3,6-dichloro-2-methoxybenzoate]",≤ 500
26,"COc1c(Cl)ccc(Cl)c1C(=O)OCCN1CCCC1 [Compound 5, 2-(pyrrolidin-1-yl)ethyl 3,6-dichloro-2-methoxybenzoate]",≤ 500
27,"CCN(CC)CCSC(=O)c1c(Cl)ccc(Cl)c1OC [Compound 28, S-(2-(diethylamino)ethyl) 3,6-dichloro-2-methoxybenzene-1-carbothioate]",≤ 125
28,"COc1c(Cl)ccc(Cl)c1C(=O)OCCN1CCCCC1 [Compound 6, 2-(piperidin-1-yl)ethyl 3,6-dichloro-2-methoxybenzoate]",≤ 2000
